This is an account of results in patent US7713994B2 (Wyeth LLC, priority 2005, dated 2010).

Read-outs that look alike come from different tables or passages of the source. Some results are limits rather than exact numbers.

One experiment has as its system HCT-116. Kind of experiment: Cytotoxicity assay (SRB), HCT-116. The class given is cell-based. Particulars: Homo sapiens, HCT-116, 72 h, HCT116 cells, SRB, read-out: In Vitro Cellular Activity IC50 HCT116. In outline: (§1)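 Percentage survival is derived from SRB absorbance (540 nm) versus untreated cells. Exposures were 3 days, except 6 days for BT474, at 37 °C and 7% CO2.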

A further experiment deals with BT474. The experiment can be described thus: Cytotoxicity assay (SRB), BT474. The format is cell-based. In outline: as §1
The target of the next experiment is T1, cyclin E/CDK2 enzyme (Homo sapiens, UniProt P24941).
T1 construct: made in house; host or cells: Sf9 insect cells, recombinant baculovirus
The experiment can be described thus: CDK2 ELISA kinase assay (phospho-Rb ser 795 detection). Particulars: read-out: CDK2 IC50. The format is biochemical. The gist of the method:
(§2)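 Screening was done at 10 ug/ml compound. Each partially purified cyclin/CDK complex, produced in baculovirus-infected Sf9 cells, phosphorylated a coated GST-Rb C-terminal fragment with 200 μM ATP, and Ser795 phosphorylation was quantified by HRP-ELISA at 450 nm.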
For orientation: In an ELISA, binding on a coated surface is turned into a signal by an enzyme label.

For a further experiment, the system named is MCF-7. The experiment can be described thus: Cytotoxicity assay (SRB), MCF-7. The conditions noted are these: Homo sapiens, MCF7, 72 h, MCF-7 cells, SRB, read-out: In Vitro Cellular Activity IC50 MCF-7. The class given is cell-based. The gist of the method:
as §1

The next experiment concerns LoVo. Kind of experiment: Cytotoxicity assay (SRB), LoVo. Particulars: Homo sapiens, LoVo, 72 h, LoVo cells, SRB, read-out: In Vitro Cellular Activity IC50 LOVO. The format is cell-based. The gist of the method:
as §1

A further experiment has as its target T2, cyclin B/CDK1 enzyme (Homo sapiens, UniProt P06493).
T2 construct: purchased New England BioLabs; host or cells: Sf9 insect cells, recombinant baculovirus
The experiment can be described thus: CDK1 ELISA kinase assay (phospho-Rb ser 795 detection). The class given is biochemical. Particulars: read-out: CDK1 IC50. In outline: as §2

The target in the next experiment is T3, cyclin D1/cdk 4 enzyme (Homo sapiens, UniProt P11802).
T3 construct: made in house; host or cells: Sf9 insect cells, recombinant baculovirus
Kind of experiment: CDK4 ELISA kinase assay (phospho-Rb ser 795 detection). The class given is biochemical. Particulars: read-out: CDK4 IC50. The gist of the method:
as §2

Setting [1] is: Homo sapiens, BT-474, 144 h, BT474 cells, 6 days, SRB; read-out: In Vitro Cellular Activity IC50 BT474.
Where [2] appears, read: In Vitro Enzyme Assays, 200 μM ATP.
Where [3] appears, read: Homo sapiens, BT-474, 144 h, BT474 cells, SRB, 6 days; read-out: In Vitro Cellular Activity IC50 BT474.

T3 sequence (P11802 whole entry, species assumed): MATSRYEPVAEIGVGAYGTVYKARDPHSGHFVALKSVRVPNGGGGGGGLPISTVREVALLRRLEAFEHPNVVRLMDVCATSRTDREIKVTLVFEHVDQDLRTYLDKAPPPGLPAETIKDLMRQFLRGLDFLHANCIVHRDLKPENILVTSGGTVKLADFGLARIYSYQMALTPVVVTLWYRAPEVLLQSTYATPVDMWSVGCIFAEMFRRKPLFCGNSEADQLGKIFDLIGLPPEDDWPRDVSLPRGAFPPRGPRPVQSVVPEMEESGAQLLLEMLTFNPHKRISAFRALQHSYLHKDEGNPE
T3 sequence (P24385 whole entry partner, species assumed): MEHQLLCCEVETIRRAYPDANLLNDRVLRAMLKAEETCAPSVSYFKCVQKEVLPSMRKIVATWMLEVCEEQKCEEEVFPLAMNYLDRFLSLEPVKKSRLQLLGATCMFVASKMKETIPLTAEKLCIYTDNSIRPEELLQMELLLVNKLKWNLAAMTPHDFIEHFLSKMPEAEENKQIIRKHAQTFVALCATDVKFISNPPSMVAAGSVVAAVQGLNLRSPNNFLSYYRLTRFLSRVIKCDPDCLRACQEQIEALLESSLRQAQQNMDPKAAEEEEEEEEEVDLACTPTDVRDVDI
T2 sequence (P06493 whole entry): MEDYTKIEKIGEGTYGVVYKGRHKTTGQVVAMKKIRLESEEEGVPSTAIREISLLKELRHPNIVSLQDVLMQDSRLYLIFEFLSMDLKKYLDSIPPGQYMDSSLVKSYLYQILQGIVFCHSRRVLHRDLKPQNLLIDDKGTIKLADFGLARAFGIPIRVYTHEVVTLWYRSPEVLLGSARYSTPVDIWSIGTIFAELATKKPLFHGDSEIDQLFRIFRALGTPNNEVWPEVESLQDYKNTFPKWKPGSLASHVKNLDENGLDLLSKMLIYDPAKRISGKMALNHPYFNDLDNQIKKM
T2 sequence (P14635 whole entry partner): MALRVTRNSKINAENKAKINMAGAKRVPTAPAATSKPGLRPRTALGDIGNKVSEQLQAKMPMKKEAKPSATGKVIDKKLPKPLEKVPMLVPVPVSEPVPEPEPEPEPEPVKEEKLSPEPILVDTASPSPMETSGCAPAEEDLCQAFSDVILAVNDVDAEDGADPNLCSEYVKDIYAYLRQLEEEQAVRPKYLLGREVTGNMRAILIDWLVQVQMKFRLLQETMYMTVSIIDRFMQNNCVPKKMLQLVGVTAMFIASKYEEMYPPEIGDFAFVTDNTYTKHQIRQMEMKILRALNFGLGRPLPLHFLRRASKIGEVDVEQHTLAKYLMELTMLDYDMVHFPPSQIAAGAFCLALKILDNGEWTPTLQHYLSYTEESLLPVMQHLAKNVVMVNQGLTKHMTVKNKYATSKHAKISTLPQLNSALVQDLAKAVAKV

Turning to `O=C1NC(=O)c2ccc(I)cc2/C1=C/Nc1ccc(N2CCC[C@H]2CO)c(F)c1` (stereo in doubt) [Example 426, 4-{[3-Fluoro-4-(2-hydroxymethyl-pyrrolidin-1-yl)-phenylamino]-methylene}-6-iodo-4H-isoquinoline-1,3-dione], the IC50 (as a rule, the point on the concentration scale where inhibition reaches its midpoint) with HCT-116 (3 days) was 1.6 µM; in the experiment on BT474 (setting [1]) it was 4.5 µM; on cyclin E/CDK2 enzyme (In Vitro Enzyme Assays), 31 µM; in the experiment with MCF-7 (3 days), 2.8 µM; with LoVo (3 days), 2.2 µM; at cyclin B/CDK1 enzyme (In Vitro Enzyme Assays) it was greater than 50 µM. Further, the half-inhibitory concentration (IC50) on cyclin D1/cdk 4 enzyme (setting [2]) turned out to be 10 µM.

On to `O=C1CC[C@@H](CN/C=C2\C(=O)NC(=O)c3ccc(I)cc32)N1` (stereo in doubt) [Example 427, 6-Iodo-4-{[(5-oxo-pyrrolidin-2-ylmethyl)-amino]-methylene}-4H-isoquinoline-1,3-dione], for which the IC50 was 17.8 µM in the experiment on HCT-116 (3 days); 23.2 µM with BT474 (setting [1]); greater than 50 µM at cyclin E/CDK2 enzyme (In Vitro Enzyme Assays); 22.4 µM in the experiment on MCF-7 (3 days); 22.7 µM with LoVo (3 days); greater than 50 µM on cyclin B/CDK1 enzyme (In Vitro Enzyme Assays). Moreover, the concentration for half-maximal inhibition (IC50) at cyclin D1/cdk 4 enzyme (setting [2]) was determined as 2.1 µM.

As for `O=C1NC(=O)c2ccc(Br)cc2/C1=C/Nc1ccc(CN2CCC[C@H]2CO)cc1` (stereo in doubt) [Example 437, 6-Bromo-4-{[4-(2-hydroxymethyl-pyrrolidin-1-ylmethyl)-phenylamino]-methylene}-4H-isoquinoline-1,3-dione], the IC50 is 3.7 µM in the experiment with HCT-116 (3 days); 2.9 µM in the experiment on BT474 (setting [1]); 36.3 µM on cyclin E/CDK2 enzyme (In Vitro Enzyme Assays); 3.1 µM in the experiment with MCF-7 (3 days); 3.6 µM in the experiment on LoVo (3 days); greater than 50 µM on cyclin B/CDK1 enzyme (In Vitro Enzyme Assays). In addition, the IC50 on cyclin D1/cdk 4 enzyme (setting [2]) is 0.75 µM.

As for `O=C1NC(=O)c2ccc(-c3cccs3)cc2/C1=C/Nc1ccc(CN2CCC[C@H]2CO)cc1` (stereo in doubt) [Example 438, 4-{[4-(2-Hydroxymethyl-pyrrolidin-1-ylmethyl)-phenylamino]-methylene}-6-thiophen-2-yl-4H-isoquinoline-1,3-dione], the IC50 with HCT-116 (3 days) is 1.6 µM; with BT474 (setting [1]) it was 2.2 µM; at cyclin E/CDK2 enzyme (In Vitro Enzyme Assays), greater than 50 µM; with MCF-7 (3 days) it was 1.8 µM; in the experiment with LoVo (3 days), 1.6 µM; at cyclin B/CDK1 enzyme (In Vitro Enzyme Assays), greater than 50 µM. For the same compound, at cyclin D1/cdk 4 enzyme (setting [2]), the IC50 is 0.04 µM.

For `CN1CCN(CCN(C)c2ccc(NC=C3C(=O)NC(=O)c4ccc(Br)cc43)cc2)CC1` (stereo in doubt) [Example 870, (4Z)-6-Bromo-4-{[(4-{methyl[2-(4-methylpiperazin-1-yl)ethyl]amino}phenyl)amino]methylene}isoquinoline-1,3(2H,4H)-dione], the IC50 was 3 µM in the experiment with HCT-116 (3 days); 10.2 µM in the experiment on BT474 (setting [1]); greater than 50 µM on cyclin E/CDK2 enzyme (In Vitro Enzyme Assay); 9.2 µM in the experiment on MCF-7 (3 days); 10.5 µM in the experiment on LoVo (3 days); greater than 50 µM on cyclin B/CDK1 enzyme (In Vitro Enzyme Assay). For the same compound, the half-inhibitory concentration (IC50) on cyclin D1/cdk 4 enzyme (In Vitro Enzyme Assay) was found to be 2.6 µM.

With `O=C1NC(=O)c2ccc(Br)cc2/C1=C/NCc1cccc(O)c1` [Example 46], the IC50 in the experiment with HCT-116 (three days) is 23 µM; in the experiment on BT474 (setting [3]), greater than 50 µM; on cyclin E/CDK2 enzyme (In Vitro Enzyme Assays), greater than 50 µM; in the experiment on MCF-7 (three days), greater than 50 µM; in the experiment with LoVo (three days) it was 23 µM; on cyclin B/CDK1 enzyme (In Vitro Enzyme Assays) it was greater than 50 µM. Moreover, on cyclin D1/cdk 4 enzyme (setting [2]), the IC50 was determined as 0.033 µM.

In the case of `O=C1NC(=O)c2ccc(-n3cccc3)cc2/C1=C/Nc1ccc(CN2CCCC2)cc1` [Example 72], the IC50 in the experiment with HCT-116 (three days) is 3.4 µM; in the experiment with BT474 (setting [3]), 4.1 µM; at cyclin E/CDK2 enzyme (In Vitro Enzyme Assays), greater than 50 µM; with MCF-7 (three days), 2.6 µM; in the experiment on LoVo (three days), 3.4 µM; on cyclin B/CDK1 enzyme (In Vitro Enzyme Assays), greater than 50 µM. In addition, the 50% inhibitory concentration (IC50) at cyclin D1/cdk 4 enzyme (setting [2]) was determined as 0.19 µM.

Turning to `O=C1NC(=O)c2ccc(Br)cc2/C1=C/NCc1cc(O)c(O)c(O)c1` [Example 79], the half-maximal inhibitory concentration (IC50) with HCT-116 (three days) is greater than 50 µM; in the experiment with BT474 (setting [3]), 37.7 µM; at cyclin E/CDK2 enzyme (In Vitro Enzyme Assays) it was 2.2 µM; in the experiment on MCF-7 (three days), greater than 50 µM; with LoVo (three days) it was 49.5 µM; on cyclin B/CDK1 enzyme (In Vitro Enzyme Assays), 42.6 µM. In addition, the half-inhibitory concentration (IC50) on cyclin D1/cdk 4 enzyme (setting [2]) is 0.026 µM.
